Assay results taken from patent US10239830B2, “Benzenesulfonamide upregulators of NPC1 for Neimann-Pick disease and other lysosomal storage disorders” (ICAHN SCHOOL OF MEDICINE AT MOUNT SINAI, priority 2015, dated 2019).
One block for each compound: values may come before it.

Key:
Renilla Enzyme = molecular target: T1, Renilla Enzyme (Renilla reniformis, UniProt P27652); test: Biochemical Renilla Luciferase Counter assay
T1 sequence (P27652 1-311): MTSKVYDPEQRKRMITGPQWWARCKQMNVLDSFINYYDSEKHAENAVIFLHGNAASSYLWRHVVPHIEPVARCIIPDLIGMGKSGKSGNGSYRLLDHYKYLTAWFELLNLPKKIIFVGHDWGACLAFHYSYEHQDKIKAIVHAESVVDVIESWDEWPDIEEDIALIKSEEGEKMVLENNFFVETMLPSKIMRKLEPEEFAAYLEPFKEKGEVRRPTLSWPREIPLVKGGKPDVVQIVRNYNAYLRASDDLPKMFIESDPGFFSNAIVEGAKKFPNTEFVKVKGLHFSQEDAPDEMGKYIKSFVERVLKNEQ
Protocol: Biochemical Renilla Luciferase Counter assay. An orthogonal assay was run to exclude any compounds that promoted renilla luciferase signal by stabilizing the renilla protein. Briefly, 3 μL of 0.01 mM D-Luciferin and 0.01 mM ATP was dispensed into a 1536 well white, solid bottom plate. Through pinning, 23 nL of compound was added; PTC124 (3-[5-(2-Fluorophenyl)-1,2,4-oxadiazol-3-yl]benzoic acid) served as the control. After a 10 min incubation at room temperature, 1 μL of Luciferase was added, after which the plate was immediately read on the ViewLux for a luminescent read-out.

[1] = system: NPC1 patient cell fibroblasts; test: Filipin Staining Assay to Detect Free Cholesterol Accumulation in NPC Cells; type: cell-based, human; conditions: filipin fluorescence relative to untreated cells
Protocol: Filipin Staining Assay to Detect Free Cholesterol Accumulation in NPC Cells. Compounds were evaluated for their effect on the NPC1 cellular phenotype by staining treated NPC1 patient cell fibroblasts with filipin, which recognizes free unesterified cholesterol. Compounds that upregulate the NPC1 promoter were expected to reduce the filipin staining in treated NPC1 fibroblasts compared to untreated NPC1 fibroblasts, indicating clearance of unesterified cholesterol. Conversely, inhibitors of the NPC1 promoter were expected to increase filipin staining in wild-type fibroblasts, thus indicating the emergence of an NPC-like phenotype. Briefly, cells were grown in lipoprotein-deficient medium for 3-4 days, and then the medium was replaced and supplemented with test compound plus 50 μg/mL low-density lipoprotein (LDL). After 24-48 hours, cells were stained with filipin and scored under the 40× magnification filter using the integrated morphometry function in the Metavue program (Molecular Devices). Test compounds that decreased the intensity of filipin fluorescence to less than 50% of untreated cells are considered of particular interest.

NPC1 promoter [2] = test: Confirmation Assay of NPC1 Promoter Activators: Renilla Luciferase (Huh7); type: cell-based, human; conditions: 24 hours
Protocol: Confirmation Assay of NPC1 Promoter Activators: Renilla Luciferase. The confirmation assay was carried out using an assay in which the NPC1 promoter drives the expression of a different luciferase protein from the one used in the primary screen. The NPC1 promoter was cloned in front of the renilla luciferase reporter gene. NPC1 promoter activation results in renilla luciferase expression. This vector was used to generate Huh7 cell lines stably expressing the NPC1-renilla luciferase vector. These cells were propagated and maintained in medium containing RPMI-1640 supplemented with 10% FBS, 2 mM L-glutamine, and 50 μg/mL penicillin/streptomycin. Cells were plated for assays in OPTI-MEM I reduced-serum medium supplemented with 10% FBS at 1,500 cells/well in 5 μL in 1,536-well white opaque plates and then 23 nL/well of compound in DMSO solution were added through pin transfer. The assay plates were incubated at 37° C. for 24 hours. The Amplite luciferase reporter gene assay kit was purchased from ABD Bioquest and prepared/stored according to manufacturer's recommendations. Luminescence signal was measured in a ViewLux plate reader (Perkin Elmer) after a 10 minute incubation at room temperature.

NPC3 cells = test: Lactosyl Ceramide (BODIPY-LacCer) staining to monitor sphingolipid transport; type: cell-based, human; conditions: for correction of lipid transport block (accumulation of Bodipy LacCer probe to the Golgi): compared to untreated NPC3 cells
Protocol: Lactosyl Ceramide staining to monitor sphingolipid transport in NPC cells. The effect of each compound on the sphingolipid transport defect seen in NPC1 fibroblasts was assessed in cells treated with compound for 48-72 hours using the fluorescent probe BODIPY-lactosylceramide (LacCer). […] This mislocalization can be corrected and Golgi localization restored by expression of Wt NPC1 protein or Rab9, thus providing a dynamic view of the endocytic transport pathway. Cells were incubated with 5 μM BODIPY-LacCer/BSA for 45 min at 37° C. in culture medium containing 1% FBS, washed, and further incubated for 1 h at 37° C. in medium containing 1% FBS. Fluorescent lipid present at the plasma membrane was removed by back-exchange with 5% fatty acid-free BSA. Cells were fixed with 3% paraformaldehyde for 20 min at RT and then visualized on a Nikon Eclipse microscope fitted with a charge-coupled-device camera. Images were acquired with MetaVue software and then deconvoluted using AutoDeblur software.
Unlike the VTB assay above that detects the static levels of lipid storage, the Bodipy LacCer probe allows for detection of the recovery/correction of lipid transport from the plasma membrane to the Golgi apparatus as described above. This dynamic assay can be used to determine the level of correction various compounds have on the NPC transport block.

NPC1 promoter [3] = test: qHTS of NPC1 Promoter-Luciferase Reporter Gene Assay (firefly, Huh7); type: cell-based, human; conditions: 24 hours
Protocol: (§1) qHTS of NPC1 Promoter-Luciferase Reporter Gene Assay. For the second primary screen, a promoter assay was developed by engineering a vector using approximately 1.5 kb of the NPC1 promoter to drive the expression of the firefly luciferase reporter gene. Thus, NPC1 promoter activation results in luciferase expression. This vector was used to generate Huh7 cell lines stably expressing the NPC1-luciferase vector. […] Cells were plated for assays in OPTI-MEM I reduced-serum medium supplemented with 10% FBS at 1,500 cells/well in 5 μL in 1,536-well white opaque plates with 23 nL/well of test compound in DMSO solution. The assay plates were incubated at 37° C. for 24 hours, after which 3 μL/well BriteLite plus luciferase detection reagent mixture (Perkin Elmer) was added. Luminescence signal was measured in a ViewLux plate reader (Perkin Elmer) after a 10 minute incubation at room temperature.

Wild type (Wt) cells = test: VTB-GL-3 assay, wild type cells; type: cell-based, human; conditions: Wt cells treated for 3 days
Rab9 promoter = test: qHTS of Rab9 Promoter-Luciferase Reporter Gene Assay (firefly, Huh7); type: cell-based, human; conditions: 24 hours
Protocol: as §1, with “Rab9” for “NPC1”, “the” for “the second”, “Rab9-luciferase” for “NPC1-luciferase”

- Renilla Enzyme IC50 (Renilla Enzyme): Inactive
- EC50 (NPC1 promoter [2]): 2.7 µM
- NPC1-renilla Eff. (NPC1 promoter [2]): 80%
Compound: COc1ccc(NC(=O)C23CC4CC(CC(C4)C2)C3)cc1S(=O)(=O)Nc1ccc(Br)cc1 [Example 47]
- % storage at 1 μM [1]: 33%

Compound: COc1ccc(NC(=O)c2[nH]c(C)c(C(C)=O)c2C)cc1S(=O)(=O)Nc1ccc(Br)cc1 [Example 36]
- percent Golgi location (NPC3 cells; 10 or 100 nM): reduces percent Golgi location by a statistically significant amount
- correction of lipid transport block (accumulation of Bodipy LacCer probe to the Golgi) (NPC3 cells): correction of their block
- EC50 (NPC1 promoter [3]): 0.7 µM
- NPC1 Eff. (NPC1 promoter [3]): 150%
- % storage at 0.1 μM [1]: 50%
- % storage at 1 μM [1]: 25%
- effect on storage of lipid material (VTB staining) in Wt cells (Wild type (Wt) cells): no effect on Wt cells

Compound: CC(=O)c1c(C)[nH]c(C(=O)Nc2cccc(S(=O)(=O)N(C)C)c2)c1C [Example 1]
- EC50 (Rab9 promoter): 6.1 µM
- Rab9 Eff. (Rab9 promoter): 148%
- percent Golgi location (NPC3 cells; 1 μM): reduces percent Golgi location by a statistically significant amount
- correction of lipid transport block (accumulation of Bodipy LacCer probe to the Golgi) (NPC3 cells): correction of their block
- EC50 (NPC1 promoter [3]): 6.6 to 7.7 µM
- NPC1 Eff. (NPC1 promoter [3]): 68-83%
- % storage at 0.1 μM [1]: 40%
- % storage at 1 μM [1]: 22%
- effect on storage of lipid material (VTB staining) in Wt cells (Wild type (Wt) cells): no effect on Wt cells
